Source: ChEMBL document CHEMBL5380820, “Design and Discovery of Novel Cyclic Peptides as EDPs-EBP Interaction Inhibitors for the Treatment of Liver Fibrosis” (J Med Chem, 2023)
Activity calls are given as the source filed them. No cut-off for these calls is given here. Where a SMILES comes first, the peptide text is derived from it. Bridges are numbered along the chain shown (N, C = ends).

Experiments:
[1] = test system: LX-2; assay: Antifibrotic activity against TGF-beta induced human LX2 cells assessed as reduction of alpha-SMA expression derived peptide measured by Western blotting analysis; type: functional, cell-based; conditions: dose 0.01-100 µmol/L
[2] = test system: LX-2; assay: Antifibrotic activity against TGF-beta induced human LX2 cells assessed as inhibition of neuraminidase activity using NA fluorogenic substrate by measuring fluorescence intensity relative to control; type: functional
[3] = test system: LX-2; assay: Antifibrotic activity against TGF-beta induced human LX2 cells assessed as inhibition of alpha-SMA expression by measuring fluorescence intensity relative to control; type: functional
[4] = test system: LX-2; assay: Antifibrotic activity against TGF-beta induced human LX2 cells assessed as inhibition of collagen I expression by measuring fluorescence intensity relative to control; type: functional
[5] = test system: Mus musculus; assay: Antifibrotic activity in CCl4-induced C57BL/6 mouse model of liver fibrosis assessed as reduction in serum ALT level treated at 150 ug/kg, ip daily for 3 weeks; type: functional, organism-based; conditions: dose 150.0 µg/kg
[6] = test system: Mus musculus; assay: Antifibrotic activity in CCl4-induced C57BL/6 mouse model of liver fibrosis assessed as reduction in serum AST level treated at 150 ug/kg, ip daily for 3 weeks; type: functional, organism-based; conditions: dose 150.0 µg/kg
[7] = test system: LX-2; assay: Antifibrotic activity against TGF-beta induced human LX2 cells assessed as reduction of alpha-SMA expression measured at 10 uM for 24 hrs by measuring fluorescence intensity relative to control; type: functional; design: scale not given: the % may be the effect or the level left
[8] = test system: LX-2; assay: Antifibrotic activity against TGF-beta induced human LX2 cells assessed as reduction of collagen I expression measured at 10 uM for 24 hrs by measuring fluorescence intensity relative to control; type: functional; design: scale not given: the % may be the effect or the level left
[9] = test system: LX2; assay: Inhibition of elastin receptor complex elastin binding protein subunit in human LX2 cells assessed as inhibition of EDP induced ERK phosphorylation treated at 10 uM for 24 hrs by Western blot analysis; type: cell-based
[10] = test system: LX2; assay: Inhibition of elastin receptor complex elastin binding protein subunit in human LX2 cells assessed as inhibition of EDP induced PI3K phosphorylation treated at 10 uM for 24 hrs by Western blot analysis; type: cell-based
[11] = test system: LX2; assay: Inhibition of elastin receptor complex elastin binding protein subunit in human LX2 cells assessed as inhibition of EDP induced AMPK phosphorylation treated at 10 uM for 24 hrs by Western blot analysis; type: cell-based
[12] = test system: LX-2; assay: Antiproliferative activity against TGF-beta induced human LX2 cells assessed as decrease in cell proliferation at 10 uM for 24 hrs by BeyoClick EdU cells proliferation kit with Alex Fluor 488 and DAPI staining analysis; type: functional, cell-based
[13] = test system: LX-2; assay: Inhibition of cell migration in human LX2 cells assessed as decreased cell number in wound area measured at 0 to 24 hrs by wound healing assay; type: functional, cell-based; conditions: time 0-24 hrs
[14] = test system: Mus musculus; assay: Antifibrotic activity in CCl4-induced C57BL/6 mouse model of liver fibrosis assessed as reduction of collagen deposition in liver treated at 150 ug/kg, ip daily for 3 weeks fasted for 9 hrs after last dose and sacrificed after 8 hrs of fasting by hematoxylin and eosin staining analysis; type: functional, organism-based; conditions: dose 150.0 µg/kg, time 3.033 weeks
[15] = test system: Mus musculus; assay: Antifibrotic activity in CCl4-induced C57BL/6 mouse model of liver fibrosis assessed as decrease of hydroxyproline content in liver treated at 150 ug/kg ip daily for 3 weeks fasted for 9 hrs after last dose and sacrificed after 8 hrs of fasting by […] analysis; type: functional, organism-based; conditions: dose 150.0 µg/kg, time 3.033 weeks
[16] = test system: Mus musculus; assay: Antifibrotic activity in CCl4-induced C57BL/6 mouse model of liver fibrosis assessed as reduction in alpha-SMA level treated at 150 ug/kg, ip daily for 3 weeks by Western blo analysis; type: functional, organism-based; conditions: dose 150.0 µg/kg
[17] = Stability in mouse serum assessed as half life measured by RP-HPLC-MS analysis; type: ADME, cell-free
[18] = Tmax in Sprague-Dawley rat plasma at 0.1 mg/kg, sc by HPLC-MS/MS analysis; type: ADME, organism-based
[19] = Half life in Sprague-Dawley rat plasma at 0.1 mg/kg, sc by HPLC-MS/MS analysis; type: ADME, organism-based
[20] = test system: LX-2; assay: Antifibrotic activity against TGF-beta induced human LX2 cells assessed as reduction of alpha-SMA expression measured at 10 uM for 24 hrs by measuring fluorescence intensity; type: functional, cell-based
[21] = test system: LX-2; assay: Antifibrotic activity against TGF-beta induced human LX2 cells assessed as reduction of collagen I expression measured at 10 uM for 24 hrs by measuring fluorescence intensity; type: functional, cell-based
[22] = Stability in mouse serum measured at 0 to 48 hrs by RP-HPLC-MS analysis; type: ADME, cell-free; conditions: time 0-48 hrs
[23] = Tmax in Sprague-Dawley rat plasma at 0.6 mg/kg, sc by HPLC-MS/MS analysis; type: ADME, organism-based
[24] = Half life in Sprague-Dawley rat plasma at 0.6 mg/kg, sc by HPLC-MS/MS analysis; type: ADME, organism-based

Compound | Activity [1] | inhibition (INH) [2] | inhibition (INH) [3] | Activity [5] | Activity [6] | inhibition (INH) [4] | Activity [7] | Activity [8] | inhibition [9] | inhibition [10] | inhibition [11] | Activity [12] | Activity [14] | Activity [16] | other results
CC(C)[C@@H]1NC(=O)CNC(=O)[C@@H]2CCCN2C(=O)[C@H](CO)NC(=O)[C@H](C)NC(=O)[C@H](CCC(=O)O)NC(=O)[C@H](CC(=O)O)NC(=O)[C@H](CCC(N)=O)NC(=O)[C@H](C)NC(=O)[C@H](Cc2ccccc2)NC(=O)[C@@H]2CCCN2C(=O)[C@H](CO)NC(=O)CNC(=O)[C@H](C(C)C)NC1=O (cyclo(AQDEASPGVVGSPF)) | inactive | 40.9% | 0.1% | Active | Active |  |  |  |  |  |  |  |  |  | inhibition [4]: inactive
CC(C)C[C@H](NC(=O)[C@@H]1CCCN1C(=O)[C@H](CO)NC(=O)[C@H](C)NC(=O)[C@@H]1CCC(=O)N[C@@H](C(C)C)C(=O)N[C@@H](C(C)C)C(=O)NCC(=O)N[C@@H](CO)C(=O)N2CCC[C@H]2C(=O)N[C@@H](CO)C(=O)N[C@@H](C)C(=O)N[C@@H](CCC(N)=O)C(=O)N[C@@H](CC(=O)O)C(=O)N1)C(=O)O (VVGSPSAQDEASPL-OH; lactam N-10) |  | 68% | 34.8% |  |  | 33.5% | ~50% | ~50% | Active | Active | Active | Active |  |  | 
CC(C)C[C@@H]1NC(=O)[C@@H]2CCCN2C(=O)[C@H](CO)NC(=O)[C@H](C)NC(=O)[C@H](CCC(=O)O)NC(=O)[C@H](CC(=O)O)NC(=O)[C@H](CCC(N)=O)NC(=O)[C@H](C)NC(=O)[C@H](CO)NC(=O)[C@@H]2CCCN2C(=O)[C@H](CO)NC(=O)CNC(=O)[C@H](C(C)C)NC(=O)[C@H](C(C)C)NC1=O (cyclo(AQDEASPLVVGSPS)) |  | 79.8% | 45.3% |  |  | 39.7% | ~50% | ~50% | Active | Active | Active | Active | Active | Active | inhibition [13]: Active; Activity [15]: Active; half-life [17]: > 36 h; Tmax [18]: 10.2 min; half-life [19]: 19.8 min
H-VVGSPSAQDEASPL-NH2 | Dose-Dependent Effect | 37% | 27.5% | Active | Active | 22.5% | ~50% | ~50% | Active | Active | Active | Active | Active | Active | Activity [20]: Active; Activity [21]: Active; Stability [22]: 40%; Tmax [23]: 4.8 min; half-life [24]: 4.8 min
